ChEMBL document CHEMBL3046689, “Volatile aldehydes are promising broad-spectrum postharvest insecticides” (J Agric Food Chem, 2000)
Calls of active or inactive are those of the source. No cut-off for these calls is given here.

Key:
[1] = tested on: Myzus persicae; assay: Insecticidal activity against Myzus persicae (green peach aphid) applied through two-tier reduced pressure fumigation at 30 mmHg for 0.5 hr and then 760 mmHg for 1.5 hr at 23 +/- 1 degC; type: functional
[2] = tested on: Lactuca sativa; assay: Phytotoxicity in naked Lactuca sativa (lettuce) assessed as change in visual quality after compound application for 1 hr through two-tier reduced pressure fumigation at 30 mmHg for 0.5 hr and then 760 mmHg for 1.5 hr at 23 +/- 1 degC; type: organism-based; settings: in vivo
[3] = tested on: Frankliniella occidentalis; assay: Insecticidal activity against Frankliniella occidentalis (western flower thrips); type: functional, organism-based
[4] = tested on: Pseudococcus affinis; assay: Insecticidal activity against Pseudococcus affinis; type: functional, organism-based
[5] = tested on: Persea americana; assay: Phytotoxicity in Persea americana (avocado) assessed as induction of olfactory damage after compound application for 1 hr through two-tier reduced pressure fumigation at 30 mmHg for 0.5 hr and then 760 mmHg for 1.5 hr at 23 +/- 1 degC; type: organism-based; settings: in vivo
[6] = tested on: Brassica oleracea var. italica; assay: Phytotoxicity in Brassica oleracea var. italica after compound application for 1 hr through two-tier reduced pressure fumigation at 30 mmHg for 0.5 hr and then 760 mmHg for 1.5 hr at 23 +/- 1 degC; type: organism-based; settings: in vivo
[7] = tested on: Brassica oleracea var. capitata; assay: Phytotoxicity in Brassica oleracea var. capitata (cabbage) assessed as induction of visual damage after compound application for 1 hr through two-tier reduced pressure fumigation at 30 mmHg for 0.5 hr and then 760 mmHg for 1.5 hr at 23 +/- 1 degC; type: organism-based; settings: in vivo
[8] = tested on: Lactuca sativa; assay: Phytotoxicity in naked Lactuca sativa (lettuce) after compound application for 1 hr through two-tier reduced pressure fumigation at 30 mmHg for 0.5 hr and then 760 mmHg for 1.5 hr at 23 +/- 1 degC; type: organism-based; settings: in vivo
[9] = tested on: Myzus persicae; assay: Insecticidal activity against Myzus persicae (green peach aphid) infested naked lettuce applied for 1 hr through two-tier reduced pressure fumigation at 30 mmHg for 0.5 hr and then 760 mmHg for 1.5 hr at 23 +/- 1 degC measured 24 hr; type: functional, organism-based
[10] = tested on: Malus domestica; assay: Phytotoxicity in Malus x domestica (apple) assessed as induction of olfactory damage after compound application for 1 hr through two-tier reduced pressure fumigation at 30 mmHg for 0.5 hr and then 760 mmHg for 1.5 hr at 23 +/- 1 degC; type: organism-based; settings: in vivo

With `CCC=O` [PROPIONALDEHYDE] the CTP [1] was 4.2 mg/L.hr, the Activity [2] was “Toxic” and the Activity [3] was “Active”. The Activity [4] was “Active”, the Activity [5] was “Non-toxic” and the Activity [6] was “Toxic”. For the same molecule, the Activity [7] was “Non-toxic”, the Activity [8] was “Toxic” and the Activity [9] was “Active”. For the same molecule, the Activity [10] was “Non-toxic”.
